In brackets after ≈: the same amount, converted by molar mass. Each block holds one molecule with its values, some of them ahead of it.
Assays:
[1] = test system: RAD51 foci formation in BxPC-3 cells; assay: RAD51 foci immunofluorescence after cisplatin; assay type: cell-based, human
[2] = test system: homologous recombination in BxPC-3 cells; assay: HR Quick Assay (HR-QA); assay type: cell-based; conditions: Homo sapiens
kinetic solubility = assay type: physicochemical; conditions: PBS, aqueous buffer, kinetic from dmso stock
BxPC-3 cells = assay: cell viability (CellTiter-Glo), combination with olaparib, Interaction Index; assay type: cell-based, human; conditions: for Combination studies with olaparib: combination effect: BxPC-3 cells
[3] = test system: normal pancreatic epithelial H-6037 cells; assay: cell viability, combination with olaparib; assay type: cell-based, human; conditions: 19/ola combination, 6-day
γ-H2AX in BxPC-3 cells = assay: γ-H2AX immunofluorescence; assay type: cell-based, human; conditions: BxPC-3, 72 h, 19 + ola combination
[4] = test system: homologous recombination in HEK-293 cells; assay: m-Clover Lamin A assay (mCl-HR); assay type: cell-based, human
BxPC-3 3D spheroids = assay: 3D spheroids cell viability (MTT) and volume; assay type: cell-based, human; conditions: BxPC-3 spheroids, 60 μM compound alone

Compound: N.N.[Cl][Pt][Cl] [CPL, cisplatin, reference compound]
RAD51-labelled nuclei ([1]; BxPC-3, CPL alone (50 μM cisplatin)): 56%

solubility kinetic (kinetic solubility): 234 ± 9 µM (≈ 87.4 µg/mL)
Compound: Cc1ccc2nc(-c3ccc(-c4ccccc4C(=O)O)o3)cc(C(=O)O)c2c1 [Compound 1]
inhibition at 100 µM ([2]; BXPC-3, at 100 μM): 4% | inhibition at 50 µM ([2]; BXPC-3, maximum inhibition, at 50 μM): 35% | Combination studies with olaparib: combination effect (BxPC-3 cells; 144 h): additive (a result ranging from 0.8 to 1.2 denotes an additive effect)

Compound: Cc1ccc2nc(-c3ccc(-c4ccccc4)o3)cc(C(=O)O)c2c1 [Compound 4]
inhibition at 80 µM ([2]; BXPC-3, maximum inhibition): 63% | Combination studies with olaparib: combination effect (BxPC-3 cells; 144 h): additive (a result ranging from 0.8 to 1.2 denotes an additive effect)

Compound: Cc1ccc2nc(-c3ccc(-c4ccccc4F)o3)cc(C(=O)O)c2c1 [Compound 8]
inhibition at 60 µM ([2]; BXPC-3, maximum inhibition, at 60 μM): 39%

Compound: CCc1ccc2nc(-c3ccc(-c4ccccc4)o3)cc(C(=O)O)c2c1 [Compound 16]
inhibition at 80 µM ([2]; BXPC-3, maximum inhibition): 76% | cell viability reduction (BxPC-3 cells; BxPC-3, compound alone at 40 µM): 40% | Combination studies with olaparib: combination effect (BxPC-3 cells; 144 h): additive (a result ranging from 0.8 to 1.2 denotes an additive effect)

Compound: Nc1ccc2nc(-c3ccc(-c4ccccc4)o3)cc(C(=O)O)c2c1 [Compound 17]
inhibition at 20 µM ([2]; BXPC-3, maximum inhibition): 77% | Combination studies with olaparib: combination effect (BxPC-3 cells; 144 h): additive (a result ranging from 0.8 to 1.2 denotes an additive effect)

Compound: O=C(O)c1cc(-c2ccc(-c3ccccc3)o2)nc2ccc(O)cc12 [Compound 18]
inhibition at 20 µM ([2]; BXPC-3, maximum inhibition): ≤ 60%

IC50 ([2]; multiple-dose HR-QA): 21.7 ± 1.81 µM | solubility kinetic (kinetic solubility): > 250 µM
Compound: COc1ccc2nc(-c3ccc(-c4ccccc4)o3)cc(C(=O)O)c2c1 [Compound 19]
inhibition at 80 µM ([2]; BXPC-3, maximum inhibition): 81% | effect on cell viability of normal cells [3]: no significant effect | γ-H2AX-labelled nuclei (γ-H2AX in BxPC-3 cells): > 40% | RAD51-labelled nuclei ([1]; BxPC-3, 19 and CPL (50 μM cisplatin)): 22% | mClover-positive cells ([4]; HEK-293, 40 μM): ~4% | inhibition at 40 µM ([4]; Homo sapiens, HEK293, HEK-293, 40 μM): ~74% | Combination w/ola in BxPC-3 cells (BxPC-3 cells; BxPC-3, Table S2): Synergism | impact on spheroid volume (BxPC-3 3D spheroids): no significant impact

Compound: Cc1ccc2nc(-c3ccc(-c4ccccc4)s3)cc(C(=O)O)c2c1 [Compound 20]
inhibition at 20 µM ([2]; BXPC-3, maximum inhibition): 89% | cell viability reduction (BxPC-3 cells; BxPC-3, 5 µM compound in combination with olaparib, 144 h): ≈ 40% | Combination studies with olaparib: combination effect (BxPC-3 cells; 144 h): additive (a result ranging from 0.8 to 1.2 denotes an additive effect)

— publication PMC12907944, “Targeting RAD51-BRCA2 Interaction to Enhance Synthetic Lethality with Olaparib in Pancreatic Cancer: Development of a Novel Phenyl Furan-Quinoline-Carboxylic Acid Series” (ACS Medicinal Chemistry Letters, 2026)
